“And” between values parts separate entries of the source, which are not always exact repeats. Identical values can stand only once. Like-named read-outs stand apart in the source and are kept apart here.
Tests used:
Assay in all cases: qHTS cell viability (CellTiter-Glo, 72 h; primary and follow-up small molecule screen)
Type in all cases: cell-based, human
WAGA cells (VP-MCC) = tested on: WAGA cells (VP-MCC)
MKL-2 cells (VP-MCC) = tested on: MKL-2 cells (VP-MCC)
MCC26 cells (VN-MCC) = tested on: MCC26 cells (VN-MCC)
MCC13 cells (VN-MCC) = tested on: MCC13 cells (VN-MCC)
MKL-1 cells (VP-MCC) = tested on: MKL-1 cells (VP-MCC)
UISO cells (VN-MCC) = tested on: UISO cells (VN-MCC)
[1] = follow-up screen, WAGA, replicate 1
[2] = follow-up screen, WAGA, replicate 2
[3] = follow-up screen, WAGA, replicate 3
[4] = follow-up screen, MKL-2, replicate 1
[5] = follow-up screen, MKL-2, replicate 2
[6] = follow-up screen, MKL-2, replicate 3
[7] = follow-up screen, MCC26, replicate 1
[8] = follow-up screen, MCC26, replicate 2
[9] = follow-up screen, MCC26, replicate 3
[10] = follow-up screen, MCC13, replicate 1
[11] = follow-up screen, MCC13, replicate 2
[12] = follow-up screen, MCC13, replicate 3
[13] = follow-up screen, MKL-1, replicate 1
[14] = follow-up screen, MKL-1, replicate 2
[15] = follow-up screen, MKL-1, replicate 3
[16] = follow-up screen, UISO, replicate 1
[17] = follow-up screen, UISO, replicate 2
[18] = follow-up screen, UISO, replicate 3

| SMILES | Area under the dose-response curve (AUC) WAGA Replicate 1 (WAGA cells (VP-MCC); [1]) | Area under the dose-response curve (AUC) WAGA Replicate 2 (WAGA cells (VP-MCC); [2]) | Area under the dose-response curve (AUC) WAGA Replicate 3 (WAGA cells (VP-MCC); [3]) | Area under the dose-response curve (AUC) MKL-2 Replicate 1 (MKL-2 cells (VP-MCC); [4]) | Area under the dose-response curve (AUC) MKL-2 Replicate 2 (MKL-2 cells (VP-MCC); [5]) | Area under the dose-response curve (AUC) MKL-2 Replicate 3 (MKL-2 cells (VP-MCC); [6]) | Area under the dose-response curve (AUC) MCC26 Replicate 1 (MCC26 cells (VN-MCC); [7]) | Area under the dose-response curve (AUC) MCC26 Replicate 2 (MCC26 cells (VN-MCC); [8]) | Area under the dose-response curve (AUC) MCC26 Replicate 3 (MCC26 cells (VN-MCC); [9]) | Area under the dose-response curve (AUC) MCC13 Replicate 1 (MCC13 cells (VN-MCC); [10]) | Area under the dose-response curve (AUC) MCC13 Replicate 2 (MCC13 cells (VN-MCC); [11]) | Area under the dose-response curve (AUC) MCC13 Replicate 3 (MCC13 cells (VN-MCC); [12]) | Area under the dose-response curve (AUC) MKL-1 Replicate 1 (MKL-1 cells (VP-MCC); [13]) | Area under the dose-response curve (AUC) MKL-1 Replicate 2 (MKL-1 cells (VP-MCC); [14]) | Area under the dose-response curve (AUC) MKL-1 Replicate 3 (MKL-1 cells (VP-MCC); [15]) | Area under the dose-response curve (AUC) UISO Replicate 1 (UISO cells (VN-MCC); [16]) | Area under the dose-response curve (AUC) UISO Replicate 2 (UISO cells (VN-MCC); [17]) | Area under the dose-response curve (AUC) UISO Replicate 3 (UISO cells (VN-MCC); [18]) | further results |
| --- | --- | --- | --- | --- | --- | --- | --- | --- | --- | --- | --- | --- | --- | --- | --- | --- | --- | --- | --- |
| C[C@@H]1O[C@@H](O[C@H]2C[C@@H](O)[C@]3(CO)[C@H]4[C@H](O)C[C@]5(C)[C@@H](C6=CC(=O)OC6)CC[C@]5(O)[C@@H]4CC[C@]3(O)C2)[C@H](O)[C@H](O)[C@H]1O [G-Strophanthin] | 307.5 | 286.8 | 292.2 | 279.7 | 288.8 | 290.5 | 280.5 | 322.9 | 231.8 | 250.1 | 222.2 | 219.6 | 297.3 | 274.0 | 262.6 | 241.1 | 235.2 | 205.5 | – |
| O=c1cc(-c2ccc(O)c(O)c2)oc2cc(O)cc(O)c12 [Luteolin] | 542.7 | 525.5 | 485.9 | 469.9 | 500.3 | 460.5 | 469.7 | 436.1 | 492.5 | 522.6 | 523.6 | 493.6 | 484.8 | 451.1 | 471.1 | 505.5 | 498.3 | 457.3 | – |
| O=C1Nc2cc(Br)ccc2/C1=C1/Nc2ccccc2/C1=N\O [BIO] | – | – | – | – | – | – | – | – | – | – | – | – | – | – | – | – | – | – | Area under the dose-response curve (AUC) WAGA Replicate 1 (WAGA cells (VP-MCC)): 533.5; Area under the dose-response curve (AUC) WAGA Replicate 2 (WAGA cells (VP-MCC)): 491.3; Area under the dose-response curve (AUC) WAGA Replicate 3 (WAGA cells (VP-MCC)): 474.9; Area under the dose-response curve (AUC) MKL-2 Replicate 1 (MKL-2 cells (VP-MCC)): 490.0; Area under the dose-response curve (AUC) MKL-2 Replicate 2 (MKL-2 cells (VP-MCC)): 435.9; Area under the dose-response curve (AUC) MKL-2 Replicate 3 (MKL-2 cells (VP-MCC)): 463.9; Area under the dose-response curve (AUC) MCC26 Replicate 1 (MCC26 cells (VN-MCC)): 419.0; Area under the dose-response curve (AUC) MCC26 Replicate 2 (MCC26 cells (VN-MCC)): 405.4; Area under the dose-response curve (AUC) MCC26 Replicate 3 (MCC26 cells (VN-MCC)): 424.1; Area under the dose-response curve (AUC) MCC13 Replicate 1 (MCC13 cells (VN-MCC)): 481.8; Area under the dose-response curve (AUC) MCC13 Replicate 2 (MCC13 cells (VN-MCC)): 449.1; Area under the dose-response curve (AUC) MCC13 Replicate 3 (MCC13 cells (VN-MCC)): 449.8; Area under the dose-response curve (AUC) MKL-1 Replicate 1 (MKL-1 cells (VP-MCC)): 450.0; Area under the dose-response curve (AUC) MKL-1 Replicate 2 (MKL-1 cells (VP-MCC)): 447.7; Area under the dose-response curve (AUC) MKL-1 Replicate 3 (MKL-1 cells (VP-MCC)): 422.6; Area under the dose-response curve (AUC) UISO Replicate 1 (UISO cells (VN-MCC)): 266.6; Area under the dose-response curve (AUC) UISO Replicate 2 (UISO cells (VN-MCC)): 275.6; Area under the dose-response curve (AUC) UISO Replicate 3 (UISO cells (VN-MCC)): 251.6 |
| COCc1c(C(C)C)nc(C(C)C)c(/C=C/[C@@H](O)C[C@@H](O)CC(=O)O)c1-c1ccc(F)cc1 [Cerivastatin sodium] | 385.6 | 358.6 | 363.6 | 362.8 | 331.4 | 356.5 | 312.2 | 285.4 | 322.6 | 319.0 | 316.5 | 320.7 | 337.1 | 326.8 | 335.0 | 255.3 | 261.7 | 240.8 | – |
| O=C(O)CC(C(=O)O)n1c(O)c(C2=c3cc(Br)ccc3=NC2=O)sc1=S (stereo not drawn) [BCL6 Inhibitor] | – | – | – | – | – | – | – | – | – | – | – | – | – | – | – | – | – | – | Area under the dose-response curve (AUC) (WAGA cells (VP-MCC)): 531.4 and 497.2 and 476.9; Area under the dose-response curve (AUC) (MKL-2 cells (VP-MCC)): 493.8 and 494.8 and 466.7; Area under the dose-response curve (AUC) (MCC26 cells (VN-MCC)): 463.9 and 441.3 and 491.7; Area under the dose-response curve (AUC) (MCC13 cells (VN-MCC)): 512.5 and 484.7 and 473.4; Area under the dose-response curve (AUC) (MKL-1 cells (VP-MCC)): 525.6 and 554.1 and 496.0; Area under the dose-response curve (AUC) (UISO cells (VN-MCC)): 463.7 and 453.9 and 421.4 |
| CN[C@@H]1[C@H](O)[C@H](NC)[C@H]2O[C@@]3(O)C(=O)C[C@@H](C)O[C@H]3O[C@@H]2[C@H]1O.Cl.Cl.O.O.O.O.O [Spectinomycin hydrochloride] | 531.5 | 530.5 | 510.1 | 495.5 | 540.4 | 501.9 | 469.4 | 428.8 | 486.9 | 504.6 | 484.6 | 486.4 | 495.1 | 464.4 | 515.8 | 480.2 | 491.5 | 485.2 | – |
| CCc1c2c(nc3ccc(O)cc13)-c1cc3c(c(=O)n1C2)COC(=O)[C@]3(O)CC [SN-38] | 143.8 | 150.1 | 140.2 | 131.4 | 119.7 | 221.9 | 201.3 | 194.5 | 189.1 | 218.6 | 222.5 | 261.5 | 135.7 | 150.7 | 162.0 | 127.3 | 148.1 | 144.2 | – |
